The source made the active and inactive calls. No cut-off for these calls is given here.

For one assay, the target named is T1, Adenosine receptor A1 (Homo sapiens, UniProt P30542).
T1 sequence (P30542 whole entry): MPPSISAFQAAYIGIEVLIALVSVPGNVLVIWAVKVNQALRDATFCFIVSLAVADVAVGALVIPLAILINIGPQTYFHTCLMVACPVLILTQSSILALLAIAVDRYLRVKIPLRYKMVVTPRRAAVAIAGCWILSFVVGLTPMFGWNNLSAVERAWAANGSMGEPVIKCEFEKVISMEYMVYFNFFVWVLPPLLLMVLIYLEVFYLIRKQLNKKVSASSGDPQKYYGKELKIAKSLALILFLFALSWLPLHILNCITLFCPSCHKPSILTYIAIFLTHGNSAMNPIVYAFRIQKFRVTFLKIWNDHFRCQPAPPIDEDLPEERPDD
The experiment in a line: Binding affinity to adenosine A1 receptor.

Another assay has as its target Adenosine receptor A2a (Homo sapiens, UniProt P29274). In words: Binding affinity to adenosine A2A receptor.
In the next assay the target is T2, Adenosine receptor A2b (Homo sapiens, UniProt P29275).
T2 sequence (P29275 whole entry): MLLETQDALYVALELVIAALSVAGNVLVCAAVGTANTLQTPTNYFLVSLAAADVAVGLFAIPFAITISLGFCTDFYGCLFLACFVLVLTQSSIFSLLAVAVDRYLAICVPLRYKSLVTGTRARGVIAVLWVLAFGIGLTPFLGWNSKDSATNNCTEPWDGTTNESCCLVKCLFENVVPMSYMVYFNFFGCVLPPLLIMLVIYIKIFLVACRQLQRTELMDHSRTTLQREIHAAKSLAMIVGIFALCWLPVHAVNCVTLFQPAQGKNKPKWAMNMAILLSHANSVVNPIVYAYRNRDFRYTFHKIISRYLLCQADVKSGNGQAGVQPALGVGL
The experiment in a line: Binding affinity to adenosine A2B receptor.

The next assay concerns the target T3, Adenosine receptor A3 (Homo sapiens, UniProt P0DMS8).
T3 sequence (P0DMS8 whole entry): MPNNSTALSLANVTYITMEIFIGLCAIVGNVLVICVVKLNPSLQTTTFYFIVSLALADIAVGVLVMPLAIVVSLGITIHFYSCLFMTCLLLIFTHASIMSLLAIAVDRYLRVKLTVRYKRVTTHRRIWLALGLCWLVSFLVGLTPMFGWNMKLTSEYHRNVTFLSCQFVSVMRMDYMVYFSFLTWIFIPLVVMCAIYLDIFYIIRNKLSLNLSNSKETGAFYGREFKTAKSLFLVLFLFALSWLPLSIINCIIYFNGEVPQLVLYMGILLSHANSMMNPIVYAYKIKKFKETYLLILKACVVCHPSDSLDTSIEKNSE
In words: Binding affinity to adenosine A3 receptor.

Assay [1] addresses T4, Adenosine receptor A1 (Rattus norvegicus) (UniProt P25099).
T4 sequence (whole entry): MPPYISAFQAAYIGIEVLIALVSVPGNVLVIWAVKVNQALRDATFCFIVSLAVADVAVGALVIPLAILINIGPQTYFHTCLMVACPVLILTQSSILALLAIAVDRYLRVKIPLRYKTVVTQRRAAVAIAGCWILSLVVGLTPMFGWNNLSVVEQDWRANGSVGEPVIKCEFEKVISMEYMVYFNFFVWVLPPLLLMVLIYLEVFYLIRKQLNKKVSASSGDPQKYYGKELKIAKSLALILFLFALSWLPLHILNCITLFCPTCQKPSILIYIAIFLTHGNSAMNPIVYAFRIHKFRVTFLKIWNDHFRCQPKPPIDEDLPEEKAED
The experiment in a line: Agonist activity at adenosine A1 receptor in embryonic rat H9C2 cell model of ischemia assessed as reduction of cell death at 10 nM. Type of assay: functional, cell-based. Also on record: scale not given: the % may be the effect or the level left.

The target in assay [2] is T4, Adenosine receptor A1 (Rattus norvegicus). The experiment in a line: Reversal of agonistic activity at adenosine A1 receptor in embryonic rat H9C2 cell model of ischemia assessed as reduction of cardioprotective effect in presence of DPCPX A1 antagonist. Particulars: Heart. The class given is functional, tissue-based.
Assay [3] concerns the target Adenosine receptors; A1 & A3 (Homo sapiens) (UniProt P30542+P0DMS8). The experiment in a line: Selectivity for adenosine A1 receptor over adenosine A3 receptor.

Chain of Adenosine receptor A2a (P29274 whole entry): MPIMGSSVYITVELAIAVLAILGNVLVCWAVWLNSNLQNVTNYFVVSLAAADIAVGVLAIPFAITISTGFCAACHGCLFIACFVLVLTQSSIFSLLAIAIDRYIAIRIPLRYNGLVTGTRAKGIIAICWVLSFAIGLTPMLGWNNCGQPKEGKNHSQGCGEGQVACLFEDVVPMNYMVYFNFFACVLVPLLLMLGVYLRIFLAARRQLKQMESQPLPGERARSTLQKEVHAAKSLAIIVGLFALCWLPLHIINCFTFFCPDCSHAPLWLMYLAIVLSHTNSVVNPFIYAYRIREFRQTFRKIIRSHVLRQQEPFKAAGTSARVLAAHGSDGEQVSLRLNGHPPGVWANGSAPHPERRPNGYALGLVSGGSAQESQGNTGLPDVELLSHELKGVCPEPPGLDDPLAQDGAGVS

With `CC(C)(C)c1cc(C(=O)NCCCCCCNc2ncnc3c2ncn3[C@@H]2O[C@H](CO)[C@@H](O)[C@H]2O)cc(C(C)(C)C)c1O`, the Ki (commonly a measure of affinity in units of concentration, obtained from inhibition or displacement) on Adenosine receptor A1 is 40 nM; on Adenosine receptor A2a, over 10 µM; at Adenosine receptor A2b, over 10 µM; on Adenosine receptor A3, 14 nM.
Take `CC1(C)CC(Nc2ncnc3c2ncn3[C@@H]2O[C@H](CO)[C@@H](O)[C@H]2O)CC(C)(C)N1[O]`: the Ki is 50 nM on Adenosine receptor A1, over 10 µM at Adenosine receptor A2a, over 10 µM at Adenosine receptor A2b and 8560 nM at Adenosine receptor A3.
With `OC[C@H]1O[C@@H](n2cnc3c(NC4CCCC4)ncnc32)[C@H](O)[C@@H]1O`, the Activity in assay [1] is 86.2%. Further, the result in assay [2] was Active.
`CC(C)(C)c1cc(C(=O)NCCc2ccc(Nc3ncnc4c3ncn4[C@@H]3O[C@H](CO)[C@@H](O)[C@H]3O)cc2)cc(C(C)(C)C)c1O`: the Ki is 32 nM at Adenosine receptor A1, over 10 µM on Adenosine receptor A2a, 8.58 µM at Adenosine receptor A2b and 84 nM at Adenosine receptor A3. In addition, the Activity in assay [1] came to 73.2%. For the same molecule, the outcome in assay [2] was Active.
As for `CC1(C)c2ccc(Nc3ncnc4c3ncn4[C@@H]3O[C@H](CO)[C@@H](O)[C@H]3O)cc2C(C)(C)N1[O]`, the Ki on Adenosine receptor A1 was 100 nM; at Adenosine receptor A2a, over 10 µM; at Adenosine receptor A2b it was over 10 µM; at Adenosine receptor A3, 790 nM.
With `CC1(C)CC(CNc2ncnc3c2ncn3[C@@H]2O[C@H](CO)[C@@H](O)[C@H]2O)C(C)(C)N1[O]` (stereo not given in full), the Ki at Adenosine receptor A1 was 50 nM; at Adenosine receptor A2a it was over 10 µM; at Adenosine receptor A2b, over 10 µM; on Adenosine receptor A3 it was 21200 nM. The Activity in assay [1] came out at 84.8%. Besides, the result in assay [2] was Active.
Consider `CC1(C)CC(Nc2ncnc3c2ncn3[C@@H]2O[C@H](CO)[C@@H](O)[C@H]2O)CC(C)(C)N1`, for which the Ki at Adenosine receptor A1 was 1580 nM; at Adenosine receptor A2a it was over 10 µM; at Adenosine receptor A2b it was over 10 µM; at Adenosine receptor A3 it was 25000 nM.
`CC1(C)c2ccc(C(=O)NCCCCCCNc3ncnc4c3ncn4[C@@H]3O[C@H](CO)[C@@H](O)[C@H]3O)cc2C(C)(C)N1[O]`: the inhibition constant (Ki) at Adenosine receptor A1 is 15 nM; at Adenosine receptor A2a, over 10 µM; at Adenosine receptor A2b, over 10 µM; at Adenosine receptor A3, 89 nM.
Turning to `CC1(C)NC(C)(C)c2cc(Nc3ncnc4c3ncn4[C@@H]3O[C@H](CO)[C@@H](O)[C@H]3O)ccc21`, the Ki at Adenosine receptor A1 is 290 nM; at Adenosine receptor A2a, over 10 µM; at Adenosine receptor A2b, over 10 µM; on Adenosine receptor A3, 280 nM.
Consider `CC1(C)c2ccc(C(=O)NCCc3ccc(Nc4ncnc5c4ncn5[C@@H]4O[C@H](CO)[C@@H](O)[C@H]4O)cc3)cc2C(C)(C)N1[O]`, for which the Ki on Adenosine receptor A1 was 7 nM; at Adenosine receptor A2a it was over 10 µM; at Adenosine receptor A2b, 1.45 µM; at Adenosine receptor A3, 230 nM. Also, in assay [3], the Ratio Ki was 3. Further, in assay [1], the Activity was 54.7%. Besides, in assay [2], the result was Active.

(Values after ChEMBL document CHEMBL1139782, “Dual acting antioxidant A1 adenosine receptor agonists” (Bioorg Med Chem Lett, 2007).)
